Measurements published in PMC9490236, “Accurate de novo design of membrane-traversing macrocycles” (Cell, 2022).
Like-named read-outs stand apart in the source and are kept apart here. Where a SMILES comes first, the peptide text is derived from it. [ ]: non-standard residue; d: D form. NMeF = CN[C@@H](Cc1ccccc1)C(=O)O; dNMeF = CN[C@H](Cc1ccccc1)C(=O)O; NMeL = CN[C@@H](CC(C)C)C(=O)O; dNMeL = CN[C@H](CC(C)C)C(=O)O; dNMeV = CN[C@@H](C(=O)O)C(C)C; NMeA = CN[C@@H](C)C(=O)O; dNMeA = CN[C@H](C)C(=O)O

Columns and labels:
[1] = Parallel artificial membrane permeability assay (PAMPA); settings: for PAMPA_R1 / PAMPA_R3: PAMPA Papp; for PAMPA_R1: replicate 1; for PAMPA_R3: replicate 3; for Papp: PAMPA
[2] = Caco-2 permeability assay (apical to basolateral); format: in vitro ADME, human; settings: for Papp A→B: Caco-2, Caco_Papp_Average
How it was run: (§1)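 Caco-2 monolayers were grown on 0.4 μm Transwell inserts for 6 days. Peptides were applied apically at 50 μM with HBSS basolaterally and incubated 90 min at 37°C with shaking.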

Caco-2 cells = test: Caco-2 permeability assay (apical to basolateral); format: in vitro ADME, human; settings: Caco-2
How it was run: as §1

in vitro = settings: PAMPA, PAMPA_Papp_Avg
[3] = PAMPA
[4] = PAMPA, apparent permeability (Papp) in PAMPA
[5] = BQL = no significant peak detected for the peptide in the acceptor wells
[6] = BQL: No significant peak detected for the peptide in the acceptor wells
[7] = average of 3 replicates, BQL: No significant peak detected for the peptide in the acceptor wells

Compound | Papp A→B [2] [×10⁻⁶ cm/s] | Caco_R1 (Caco-2 cells) | Caco_R3 (Caco-2 cells) | Papp (in vitro) [×10⁻⁶ cm/s] | PAMPA_R1 [3] | PAMPA_R3 [3] | PAMPA_R1 [1, 6] | PAMPA_R3 [1, 6] | other results
CC[C@@H](C)[C@H]1NC(=O)[C@@H]2CCCN2C(=O)[C@@H](Cc2ccccc2)N(C)C(=O)[C@@H](CC(C)C)N(C)C(=O)[C@@H](C(C)C)NC(=O)[C@@H](CC(C)C)N(C)C(=O)[C@H](Cc2ccccc2)N(C)C(=O)[C@H](C(C)C)NC(=O)[C@H]2CCCN2C1=O [Design D9.7, VAL *PHE *DLEU DVAL *DLEU *DPHE PRO DILE DPRO] (cyclo([NMeF][dNMeL][dV][dNMeL][dNMeF]P[dI][dP]V)) |  |  |  |  |  |  |  |  | PAMPA_R1 [1, 5]: BQL; PAMPA_R3 [1, 5]: BQL; PAMPA_Papp_Avg ([1]; average of replicates R1-R3, BQL = no significant peak detected for the peptide in the acceptor wells): BQL
CC[C@H](C)[C@@H]1NC(=O)[C@@H](CC(C)C)N(C)C(=O)[C@H](CC(C)C)N(C)C(=O)[C@@H](Cc2ccccc2)NC(=O)[C@@H](CC(C)C)N(C)C(=O)[C@H]2CCCN2C(=O)[C@H]2CCCN2C(=O)[C@@H]2CCCN2C(=O)[C@@H](C(C)C)NC(=O)[C@@H]2CCCN2C(=O)[C@H](C)NC1=O [Design D11.11, PRO DPRO DPRO *DLEU DPHE *LEU *DLEU ILE ALA PRO DVAL] (cyclo(AP[dV]P[dP][dP][dNMeL][dF][NMeL][dNMeL]I)) | 4.92 | 2.88 | 5.78 | 2.26 | 1.97E-06 | 2.38E-06 |  |  | 
CC[C@H](C)[C@@H]1NC(=O)[C@@H]2CCCN2C(=O)[C@H]2CCCN2C(=O)[C@@H](CC(C)C)NC(=O)[C@@H](CC(C)C)N(C)C(=O)[C@@H](C(C)C)NC(=O)[C@H](C(C)C)NC(=O)[C@H]2CCCN2C(=O)[C@@H]2CCCN2C(=O)[C@H]([C@@H](C)CC)NC(=O)[C@H](C)N(C)C1=O [Design D11.13, PRO DPRO VAL DVAL *DLEU DLEU DPRO PRO ILE *ALA ILE] (cyclo(I[NMeA]IP[dP]V[dV][dNMeL][dL][dP]P)) | 4.5 | 4.34 | 4.75 | 1.07 | 9.91E-07 | 1.30E-06 |  |  | 
CC(C)C[C@@H]1NC(=O)[C@H](CC(C)C)N(C)C(=O)[C@H]2CCCN2C(=O)[C@H]2CCCN2C(=O)[C@H](CC(C)C)NC(=O)[C@@H](CC(C)C)N(C)C(=O)[C@@H](C)NC(=O)[C@@H](CC(C)C)N(C)C(=O)[C@H]2CCCN2C(=O)[C@@H](CC(C)C)NC(=O)[C@@H](C)N(C)C1=O [Design D11.15, LEU DPRO DPRO *LEU LEU *DALA DLEU DPRO *DLEU DALA *DLEU] (cyclo(L[dNMeA][dL][dP][dNMeL][dA][dNMeL]L[dP][dP][NMeL])) |  |  |  |  |  |  | 9.49E-07 | 1.56E-06 | Papp [1]: 1.29 ×10⁻⁶ cm/s
CC[C@@H](C)[C@H]1NC(=O)[C@H]2CCCN2C(=O)[C@H]([C@@H](C)CC)NC(=O)[C@@H]2CCCN2C(=O)[C@H]2CCCN2C(=O)[C@@H](CC(C)C)NC(=O)[C@H](CC(C)C)NC(=O)[C@H](C(C)C)NC(=O)[C@H](CC(C)C)NC(=O)[C@H](C)NC(=O)[C@H](C)NC(=O)[C@@H]2CCCN2C1=O [Design D12.1, PRO ILE DPRO DILE PRO ALA ALA LEU VAL LEU DLEU DPRO] (cyclo(I[dP][dI]PAALVL[dL][dP]P)) |  |  |  |  |  |  | BQL | BQL | PAMPA_Papp_Avg [1, 7]: BQL
CC[C@@H](C)[C@H]1NC(=O)[C@@H](CC(C)C)N(C)C(=O)[C@@H]2CCCN2C(=O)[C@H](C(C)C)NC(=O)[C@@H](C)N(C)C(=O)[C@@H]2CCCN2C(=O)[C@@H](CC(C)C)NC(=O)[C@@H](C(C)C)N(C)C(=O)[C@@H]2CCCN2C(=O)[C@H](C)NC(=O)[C@H](C(C)C)NC(=O)[C@@H]2CCCN2C1=O [Design D12.5, VAL PRO *DLEU DILE PRO VAL ALA PRO *DVAL DLEU PRO *DALA] (cyclo(AP[dNMeV][dL]P[dNMeA]VP[dNMeL][dI]PV)) |  |  |  |  |  |  | 1.24E-07 | 1.52E-07 | Papp [1]: 0.1 ×10⁻⁶ cm/s
CC[C@H](C)[C@@H]1NC(=O)[C@H](Cc2ccccc2)N(C)C(=O)[C@H]2CCCN2C(=O)[C@H]([C@@H](C)CC)NC(=O)[C@@H](C)N(C)C(=O)[C@@H](C)NC(=O)[C@@H]2CCCN2C(=O)[C@H]2CCCN2C(=O)[C@H](CC(C)C)NC(=O)[C@@H](CC(C)C)NC(=O)[C@H](CC(C)C)NC(=O)[C@H]2CCCN2C1=O [Design D12.6, DPRO *PHE ILE DPRO LEU DLEU LEU DPRO PRO DALA *DALA ILE] (cyclo([dA][dNMeA]I[dP][NMeF]I[dP]L[dL]L[dP]P)) | 2.84 | 2.06 | 4.18 | 1.47 | 2.43E-06 | 1.22E-06 |  |  | Papp at 90 min, 50 µM ([2]; human, Caco-2): 2.84 ×10⁻⁶ cm/s; Papp [4]: 1.47 ×10⁻⁶ cm/s
CC[C@@H](C)[C@H]1NC(=O)[C@@H](C)N(C)C(=O)[C@H](CC(C)C)NC(=O)[C@@H](CC(C)C)NC(=O)[C@H]2CCCN2C(=O)[C@H](CC(C)C)N(C)C(=O)[C@@H](C(C)C)NC(=O)[C@@H](CC(C)C)N(C)C(=O)[C@H](C(C)C)NC(=O)[C@@H](C(C)C)NC(=O)[C@@H]2CCCN2C(=O)[C@H]2CCCN2C1=O [Design D12.10, *LEU DPRO DLEU LEU *DALA DILE DPRO PRO DVAL VAL *DLEU DVAL] (cyclo([dV]V[dNMeL][dV][NMeL][dP][dL]L[dNMeA][dI][dP]P)) |  |  |  |  |  |  | BQL | BQL | PAMPA_Papp_Avg [1, 7]: BQL
